Values after ≈ are worked out from the molar mass of the structure shown. Like-named read-outs stand apart in the source and are kept apart here.
Assays:
[1] = Solubility assay at 25 °C (RP-HPLC); assay type: physicochemical; details: thermodynamic from solid
Protocol: The solubilities of the prodrugs and parent drugs were evaluated at 25 °C in water, simulated gastric fluid (SGF without pepsin, pH 1.2) and PBS (pH 7.4), which are the media used for chemical stability analyses. The solubilities were quantified using RP-HPLC.
Solubility was assessed in deionized water, SGF without pepsin (pH 1.2) and PBS (pH 7.4, 50 mM). The test solid compounds (5 mg) were added to 1 mL of water, PBS and SGF in glass tubes and shaken for 6 h at 25 °C. The suspensions were filtered through a PTFE 0.45 μm filter (VWR), and the resulting solutions were analyzed by means of RP-HPLC (see below). Experiments were performed in triplicate for each compound. Solubility is expressed as mM concentration.

[2] = Serum protein binding by ultrafiltration; assay type: in vitro ADME; details: male, human serum, 1 h at 37 °C, mean ± SD, read-out: Serum Protein Binding % Bound (converted)
Protocol: The serum protein binding properties of the galactosylated prodrugs and parent drugs were investigated using ultrafiltration. The compounds were incubated in human serum, and after 1 h, the concentrations of the compounds in the ultrafiltrate and the original serum were determined by means of RP-HPLC, and used to calculate the binding percentages, which are reported in Table 2.
Free- and protein-bound drug separation was obtained via ultrafiltration using commercially available membrane systems (Centrifree ultrafiltration devices with ultracel YM-T membrane, Merck, KGaA, Darmstadt, Germany). […] One milliliter of the solution was inserted into the sample reservoir of the ultrafiltration device and gently shaken in an orbital shaker for 1 h at 37 °C. […] The concentration of the compound both in the ultrafiltrate and filtrate was analyzed via RP-HPLC under the chromatographic conditions described above and using the calibration curves of standard solutions. […] The recovery of the ultrafiltration process was calculated to observe any possible compound loss during the operations in view of the limited solubility of the tested compounds.

[3] = aqueous buffer, PBS pH 7.4 50 mM, 25 °C, read-out: Solubility at 25 °C, PBS pH 7.4
[4] = simulated gastric fluid, SGF without pepsin pH 1.2, 25 °C, LOQ (HPLC) = 1 µM, read-out: Solubility at 25 °C, SGF pH 1.2
[5] = deionized water, 6 h shaking, 25 °C, mean, SD < 0.01, read-out: Solubility at 25 °C, Water

| solubility at 6 h [1, 3] [µM] | solubility at 6 h [1, 4] [µM] | solubility at 6 h [1, 5] [µM] | fraction unbound at 1 h, 100 µM [2] | Structure (SMILES) |
| --- | --- | --- | --- | --- |
| 1010 (≈ 410 µg/mL) | 1440 (≈ 585 µg/mL) | 5210 (≈ 2120 µg/mL) | 0.039 | CC(C(=O)OC[C@H]1OC(O)[C@H](O)[C@@H](O)[C@H]1O)c1ccc(-c2ccccc2)c(F)c1 (some centres unmarked) [FluGAL] |
| 2930 (≈ 1080 µg/mL) | 2530 (≈ 932 µg/mL) | 1940 (≈ 715 µg/mL) | 0.028 | CC(C)Cc1ccc(C(C)C(=O)OC[C@H]2OC(O)[C@H](O)[C@@H](O)[C@H]2O)cc1 (some centres unmarked) [IbuGAL] |

Reference: publication PMC9142922, “Galactosylated Prodrugs: A Strategy to Improve the Profile of Nonsteroidal Anti-Inflammatory Drugs” (Pharmaceuticals, 2022)
